{"source": "patent EP2289553A1", "about": "(ETH Zurich, priority 2009, dated 2011)", "key": {"[1]": {"assay": "pKa determination by titration", "type": "physicochemical", "details": "titration in Millipore water containing 150 mM NaCl, for nitrocatechols and mimosine one of the pKa values", "experimental": "pKa determination: 2 mM of the respective anchoring group was dissolved in Millipore water containing 150 mM NaCl. These solutions were titrated with 0.1 M HCl and NaOH respectively using a SevenMulti pH meter (Mettler Toledo, Switzerland)."}, "[2]": {"assay": "Dispersant binding reversibility: successive filtrations and re-dispersions in HEPES, followed by DLS", "type": "physicochemical", "details": "room temperature, anchor named, coupled to PEG(MW 5 kDa)", "experimental": "DLS: DLS experiments were run on a Zetasizer Nano ZS (Malvern, UK) in the 173° backscattering mode. Because intensity weighted diameters scale with r^6 and thus large particles are predominant, volume weighted data which scale with r^3 were analyzed using the multiple narrow modes evaluation incorporated into the Malvern software. Temperature dependent DLS experiments have been performed in HEPES at an iron oxide nanoparticle concentration of 200 µg/ml. Solutions were filtered with 200 nm Minisart syringe filters (Sartorius, Germany) prior to DLS analysis. These suspensions were heated from 25 to 90°C in 5°C steps with 10 min equilibration time before the respective DLS experiment. The dispersant binding reversibility was tested on iron oxide nanoparticle HEPES solutions (500 µg/ml) at room temperature. Solutions were repeatedly filtered using Microcon filters with a cut-off of 30 kDa (Millipore, MA, USA) by centrifuging these solutions at […] for 20 min (MiniSpin, Vaudaux Eppendorf, Switzerland). After filtration, the filter cake was re-suspended in HEPES (0.5 ml) and equilibrated for 24 h at room temperature before the next DLS experiment was performed.\nThe binding reversibility of these dispersants was tested by successive filtrations and re-dispersions of the resulting iron oxide nanoparticle filter cakes in HEPES"}}, "note": "Where two headings read alike, the source gives them in different places."}
{"molecule": "NCCc1cc(O)c(O)cc1[N+](=O)[O-]", "note": "[nitrodopamine]", "values": [{"measurement": "pKa", "setting": "[1]", "result": "around 6.5"}]}
{"molecule": "hydroxypyridine", "values": [{"measurement": "number of filtrations within which nanoparticles agglomerated", "setting": "[2]", "result": "0-3 filtrations"}]}
{"molecule": "NC(Cn1ccc(=O)c(O)c1)C(=O)O", "note": "(stereo not shown) [mimosine]", "values": [{"measurement": "number of filtrations within which nanoparticles agglomerated", "setting": "[2]", "result": "5-7 filtrations"}, {"measurement": "pKa", "setting": "[1]; read-out: pKa", "result": "~6.5"}]}
{"molecule": "N[C@@H](Cc1ccc(O)c(O)c1)C(=O)O", "note": "[DOPA]", "values": [{"measurement": "number of filtrations within which nanoparticles agglomerated", "setting": "[2]", "result": "5-7 filtrations"}, {"measurement": "pKa", "setting": "[1]; read-out: pKa", "result": "> 9"}]}
{"molecule": "NC(Cc1cc(O)c(O)cc1[N+](=O)[O-])C(=O)O", "note": "(stereo not shown)", "values": [{"measurement": "number of filtrations for which nanoparticles remained stable", "setting": "[2]", "result": "more than 9 filtrations"}, {"measurement": "pKa", "setting": "[1]; read-out: pKa", "result": "~6.5"}]}
{"molecule": "hydroxydopamine", "values": [{"measurement": "number of filtrations within which nanoparticles agglomerated", "setting": "[2]", "result": "0-3 filtrations"}, {"measurement": "pKa", "setting": "[1]", "result": "> 9"}]}
{"molecule": "NCCc1ccc(O)c(O)c1", "note": "[dopamine]", "values": [{"measurement": "number of filtrations within which nanoparticles agglomerated", "setting": "[2]", "result": "0-3 filtrations"}, {"measurement": "pKa", "setting": "[1]; read-out: pKa", "result": "> 9"}]}
{"molecule": "hydroxypyrone", "values": [{"measurement": "number of filtrations within which nanoparticles agglomerated", "setting": "[2]", "result": "0-3 filtrations"}]}
